In patent publication US11938129B2, “Methods and compositions for the treatment of vascular disease” (THE GENERAL HOSPITAL CORPORATION, priority 2018, dated 2024):
{FAM} = FAM fluorophore (/36-FAM/)

Key:
a-SMA and SM22a = test: immunofluorescence of contractile proteins in ligated carotids; type: in vivo, mouse; settings: ligated carotid, in contrast to carotid VSMCs in wild type animals
Procedure: All mice used in this study were cared for under strict compliance with the Partners Institutional Animal Care and Use Committee (IACUC), regulated by the United States Public Health Service (USPHS). Carotid ligations were performed in 10 week old mice. Briefly, animals were anesthetized using intraperitoneal ketamine/xylazine (80 and 12 mg/kg, respectively) followed by a small incision in the neck to expose the carotid artery. Then the left carotid was ligated at the carotid bifurcation level using a 8-0 silk suture. At 21 days mice were sacrificed and carotids were collected for histological analysis. Approximately 98% of wild type mice developed stenotic lesions. Mice that developed thrombosis of the ligated carotid were excluded from the study (−1¬2%). Malatl knockout mice were kindly provided by Dr. David Spector (Cold Spring Harbor, N.Y.). Hdac9 flox/flox/Talgn-cre mice were generated as previously reported (10). Ezh2 fl/fl/ (STOCK Ezh2tm2Sho/J) and Myh11-cre-GFP (B6.Cg-Tg(Myh11-cre,-EGFP)2Mik/J) were crossed to generate smooth muscle cell-Ezh2 deficient mice. All above mice and wild-type mice (C57BL/6J) were purchased from Jackson laboratory. For tissue analysis, animals were euthanized through inhalational isoflurane (Sigma, St, Louis, Mo.) prior to tissue collection. All carotid ligation (left carotid) procedures were performed at 10 weeks of age. All experiments were performed on male and female animals at a 1:1 ratio.
Left and right carotids were cryosectioned using OCT standard protocol and sectioning. The right carotid artery was unligated and served as an internal control. Neoinitima analysis was performed from hematoxylin and eosin (H & E) stained horizontal cross-sections embedded in Optimal Cutting Temperature compound (OCT). Briefly, the distal 0.2 mm of carotid from the ligation suture site were discarded followed by generation of 20 slides (10 pM). Slides 1, 5, 10, and 15 were H&E stained for quantification of neointima. For quantification of the neointima, internal and external elastic lamina perimeters and medial thickness from 4 quadrants were measured and averaged using Image J software from the National Institutes of Health (NIH). Slides 2-4, 6-9, and 11-14 were used for immunofluorescence staining.
Cohorts of 10-week-old wild-type mice were treated with oral administration in drinking water of GSK343 24 hrs before left carotid ligation and following treatment for 3 weeks. GSK343 inhibitor (25 mg) was dissolved in 1 mL of DMSO to obtain a stock solution of 46 mM. Then, 250 ml of drinking water was supplemented with 250 pl of GSK343 stock solution. Control group for was given with equal volumes of sterile water. Bottles containing GSK343 were replaced with fresh water supplied with drug every 3 days. […]

[1] = delivery of fluorescently labeled GapmeR to the vasculature; type: in vivo, mouse; settings: ligated carotid of GapmeR treated mice, not in vehicle and GSK343 treated mice

3′-FAM-GapmeR-Malatl: fluorescently labeled GapmeR against MALAT1, GTCACAATGCATTCTA/36-FAM/ (SEQ ID NO: 2) (3' {FAM}, sugars by position and backbone not given here; LNA gapmer)
expression of α-SMA in carotid VSMCs (a-SMA and SM22a): robust expression | detection of 3′-FAM labeled GapmeR in ligated carotid [1]: Detection
